Assay results taken from the supplement of paper PMC6045584.
± gives the standard deviation of the averaged measurements.

What was measured:
2-METHOXYESTRADIOL = compound: COc1cc2c(cc1O)CC[C@@H]1[C@@H]2CC[C@]2(C)[C@@H](O)CC[C@@H]12 [2-METHOXYESTRADIOL]; test: surviving fraction relative to DMSO-only wells; higher = less growth inhibition; conditions: exposure time: 5 days
Procedure, shortened: (§1)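 Tumour cell lines were grown to log phase and seeded at 250–500 cells per well in 384-well plates. They were exposed continuously to inhibitors at 0.5, 1, 5, 10, 50, 100, 500 and 1000 nM for five days, beginning 24 hours after seeding. Surviving fraction is CellTiter-Glo luminescence normalised to the median of DMSO-only wells.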

RESVERATROL = compound: Oc1ccc(/C=C/c2cc(O)cc(O)c2)cc1 [RESVERATROL]; test: as above; conditions: exposure time: 5 days
Procedure, shortened: as §1

| Test System | surviving fraction (2-METHOXYESTRADIOL; 0.5 nM) | surviving fraction (2-METHOXYESTRADIOL; 1 nM) | surviving fraction (2-METHOXYESTRADIOL; 5 nM) | surviving fraction (2-METHOXYESTRADIOL; 10 nM) | surviving fraction (2-METHOXYESTRADIOL; 50 nM) | surviving fraction (2-METHOXYESTRADIOL; 100 nM) | surviving fraction (2-METHOXYESTRADIOL; 500 nM) | surviving fraction (2-METHOXYESTRADIOL; 1000 nM) | surviving fraction (RESVERATROL; 0.5 nM) | surviving fraction (RESVERATROL; 1 nM) | surviving fraction (RESVERATROL; 5 nM) | surviving fraction (RESVERATROL; 10 nM) | surviving fraction (RESVERATROL; 50 nM) | surviving fraction (RESVERATROL; 100 nM) | surviving fraction (RESVERATROL; 500 nM) | surviving fraction (RESVERATROL; 1000 nM) |
| --- | --- | --- | --- | --- | --- | --- | --- | --- | --- | --- | --- | --- | --- | --- | --- | --- |
| SG31 HEADNECK | 1.09 ± 0.23 | 1.12 ± 0.13 | 0.996 ± 0.26 | 1.09 ± 0.084 | 1 ± 0.077 | 0.949 ± 0.025 | 1.12 ± 0.13 | 0.962 ± 0.073 | 1.1 ± 0.23 | 1.23 ± 0.18 | 1.03 ± 0.095 | 1.13 ± 0.095 | 1.05 ± 0.15 | 0.975 ± 0.19 | 1.13 ± 0.18 | 1.42 ± 0.32 |
| SG32 HEADNECK | 1.04 ± 0.1 | 0.985 ± 0.03 | 1.04 ± 0.21 | 0.96 ± 0.083 | 0.947 ± 0.059 | 0.847 ± 0.075 | 0.62 ± 0.12 | 0.34 ± 0.034 | 1.02 ± 0.14 | 0.975 ± 0.06 | 1.16 ± 0.25 | 0.989 ± 0.051 | 0.999 ± 0.018 | 1.05 ± 0.092 | 0.989 ± 0.2 | 1.01 ± 0.11 |
| SG43 HEADNECK | 0.84 ± 0.071 | 0.88 ± 0.13 | 0.807 ± 0.25 | 1.04 ± 0.39 | 0.702 ± 0.091 | 0.854 ± 0.23 | 0.91 ± 0.082 | 0.847 ± 0.11 | 0.856 ± 0.14 | 1.06 ± 0.048 | 0.867 ± 0.23 | 0.914 ± 0.025 | 0.822 ± 0.13 | 0.794 ± 0.19 | 0.848 ± 0.14 | 0.898 ± 0.22 |
| SIHA CERVIX | 0.869 ± 0.011 | 0.902 ± 0.085 | 0.952 ± 0.092 | 0.979 ± 0.057 | 0.973 ± 0.047 | 1.02 ± 0.057 | 0.719 ± 0.062 | 0.611 ± 0.072 | 1.02 ± 0.034 | 1.05 ± 0.041 | 1.116 ± 0.011 | 1.14 ± 0.066 | 1.07 ± 0.072 | 1.09 ± 0.045 | 1.09 ± 0.066 | 1.15 ± 0.02 |
| SJSA1 BONE | 0.941 ± 0.086 | 1.68 ± 0.14 | 1.73 ± 0.12 | 1.72 ± 0.037 | 1.75 ± 0.13 | 1.77 ± 0.08 | 1.67 ± 0.043 | 1.78 ± 0.08 | 1.62 ± 0.083 | 1.74 ± 0.059 | 1.65 ± 0.053 | 1.79 ± 0.04 | 1.67 ± 0.13 | 1.74 ± 0.092 | 1.61 ± 0.13 | 1.78 ± 0.078 |
